Source: patent US5208344A, “Naphthalenepropionic acid derivatives as anti-inflammatory/antiallergic agents” (American Home Products Corporation, priority 1991, dated 1993)

Tests used:
[1] = system: cyclooxygenase; assay: inhibition of synthesis of cyclooxygenase products TxB2 and PGE2 (rat polymorphonuclear leukocytes); format: cell-based; conditions: rat PMN; for % Inhibition of CO (as PGE2): negative = potentiation of PGE2 synthesis; for IC50: read-out: IC50 (inhibition of CO, as PGE2)
Protocol: (§1) Peritoneal PMN are obtained from female Wistar rats (150-250 g) that received an i.p. injection of 6% glycogen (10 ml). After 24 hours, rats are killed by CO2 asphysiation and peritoneal cells are harvested by peritoneal lavage using Ca^++ and MG^++ free Hanks' balanced salt solution (HBSS). The peritoneal exudate is centrifuged at 400 g for 10 minutes. After centrifugation, the lavaged fluid is removed and the cell pellet is resuspended in HBSS containing Ca^++ and MG^++ and 10 mM L-cysteine at a concentration of 2×10^7 cells/ml. To 1 ml portions of cell suspension, test drugs or vehicle are added and incubated at 37° C. for 10 minutes. Following this preincubation, the calcium ionophore (10 μM), a23187, is added together with 0.5 μM [14 C] arachidonic acid and further incubated for 10 minutes. The reaction is stopped by the addition of ice cold water (3 ml) and acidifying to pH 3.5. Lipoxygenase products are then extracted twice into diethyl ether. The pooled ether extracts are evaporated to dryness under nitrogen and the residue is redissolved in a small volume of methanol and spotted on aluminum backed pre-coated thin layer chromatographic plates. The samples are then cochromatographed with authentic reference 5-HETE in the solvent system - hexane: ether: acetic acid (50:50:3). After chromatography, the areas associated with 5-HETE standard are identified by autoradiography, cut out and quantitated by liquid scintillation.
However, in order to determine cyclooxygenase activity, the samples are cochromatographed with authentic reference TxB2 and PGE2 in the solvent system ethyl acetate: formic acid (80:1) and the upper phase of ethyl acetate: isooctane: acetic acid: water (110:50:20:100). After chromatography, the areas associated with the TxB2 and PGE2 standards are identified by autoradiography, cut out and quantitated by liquid scintillation techniques.

[2] = molecular target: T1, 5-lipoxygenase (Rattus norvegicus, UniProt P12527); assay: inhibition of 5-HETE synthesis by rat glycogen elicited polymorphonuclear leukocytes; format: cell-based; conditions: rat PMN; for inhibition at 10 µM: negative = potentiation of 5-HETE synthesis; for IC50: read-out: IC50 (inhibition of 5-LO, as 5-HETE)
T1 construct: Peritoneal PMN are obtained from female Wistar rats (150-250 g); endogenous in cells; host or cells: rat glycogen-elicited peritoneal polymorphonuclear leukocytes, intact
T1 sequence (P12527 1-673): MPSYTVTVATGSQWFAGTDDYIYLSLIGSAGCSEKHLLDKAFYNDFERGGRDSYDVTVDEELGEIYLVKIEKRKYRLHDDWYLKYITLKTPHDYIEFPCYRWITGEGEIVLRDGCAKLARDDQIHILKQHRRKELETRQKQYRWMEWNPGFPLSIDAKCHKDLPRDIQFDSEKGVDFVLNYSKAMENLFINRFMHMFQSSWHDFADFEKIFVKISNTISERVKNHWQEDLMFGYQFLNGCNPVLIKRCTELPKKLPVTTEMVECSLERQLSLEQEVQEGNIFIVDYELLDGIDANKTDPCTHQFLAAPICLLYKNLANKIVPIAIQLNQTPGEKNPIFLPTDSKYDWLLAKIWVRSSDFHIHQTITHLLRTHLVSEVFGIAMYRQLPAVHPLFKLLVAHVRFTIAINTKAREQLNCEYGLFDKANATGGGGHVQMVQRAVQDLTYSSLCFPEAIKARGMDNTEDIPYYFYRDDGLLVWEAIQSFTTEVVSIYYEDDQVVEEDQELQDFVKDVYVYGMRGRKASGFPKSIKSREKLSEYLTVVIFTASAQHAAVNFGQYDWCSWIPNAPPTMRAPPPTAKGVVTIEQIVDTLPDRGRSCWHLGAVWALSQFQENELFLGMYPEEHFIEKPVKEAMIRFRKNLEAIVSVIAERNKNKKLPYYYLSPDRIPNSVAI
Protocol: The assay of this Example measures the ability of the compounds of the invention to inhibit the synthesis of 5-HETE by rat glycogen elicited polymorphonuclear leukocytes.
as §1

[3] = read-out: % Inhibition of 5-LO (as 5-HETE)

SMILES	inhibition at 10 µM [2, 3] [%]	% Inhibition of CO (as PGE2) ([1]; 10 μM) [%]	further results
CC(C)=CCOc1ccc2cc(C(C)C(=O)O)ccc2c1 (stereo not drawn) [Example 14, α-Methyl-6-(3-methyl-2-butenoxy)-2-naphthaleneacetic acid]	81	-15	–
C[C@@H](C(=O)O)c1ccc2cc(OCc3ccc4ccccc4n3)ccc2c1 [Example 8, R-(-)-α-Methyl-6-(2-quinolinylmethoxy)-2-naphthaleneacetic acid]	–	–	% Inhibition of CO (as PGE2) ([1]; 0.1 μM): -7%; inhibition at 0.1 µM ([2]; 0.1 μM, read-out: % Inhibition of 5-LO (as 5-HETE)): 33%
CCCCCOc1ccc2cc(C(C)C(=O)O)ccc2c1 (stereo not drawn) [Example 12, α-Methyl-6-(pentyloxy)-2-naphthaleneacetic acid]	48	-13	–
CC(C(=O)O)c1ccc2cc(OCc3nc4ccccc4s3)ccc2c1 (stereo not drawn) [Example 5, α-Methyl-6-(2-benzothiazolylmethoxy)-2-naphthaleneacetic acid]	90	-35	–
CC(C(=O)O)c1ccc2cc(OCc3ccc4ccccc4c3)ccc2c1 (stereo not drawn) [Example 6, α-Methyl-6-(2-naphthalenylmethoxy)-2-naphthaleneacetic acid]	100	-15	–
CC(C(=O)O)c1ccc2cc(OCc3csc(-c4ccccc4)n3)ccc2c1 (stereo not drawn) [Example 9, α-Methyl-6-[(2-phenyl-4-thiazolyl)methoxy]-2-naphthaleneacetic acid]	86	-11	–
CC(C(=O)O)c1ccc2cc(OCc3ccc4ccc(Cl)cc4n3)ccc2c1 (stereo not drawn) [Example 18, α-Methyl-6-[(7-chloro-2-quinolinyl)-methoxy]-2-naphthaleneacetic acid]	–	–	IC50 [1]: > 50 µM; IC50 [2]: 11.4 µM
COC(=O)C(C)c1ccc2cc(OCc3ccc4ccccc4n3)ccc2c1 (stereo not drawn) [Example 28, α-Methyl-6-(2-quinolinylmethoxy)-2-naphthaleneacetic acid methyl ester]	–	–	IC50 [1]: > 10 µM; IC50 [2]: 0.43 µM

Now from value to compound, other results behind:

inhibition at 10 µM [2, 3] [%]	SMILES	% Inhibition of CO (as PGE2) ([1]; 10 μM) [%]	further results
82	CC(C(=O)O)c1ccc2c(Br)c(OCc3ccc4ccccc4n3)ccc2c1 (stereo not drawn) [Example 19, α-Methyl-5-bromo-6-(2-quinolinylmethoxy)-2-naphthaleneacetic acid]	-21	–
89	CC(C(=O)O)c1ccc2cc(OCC=Cc3ccccc3)ccc2c1 (stereo not drawn) [Example 20, α-Methyl-6-[(3-phenyl-2-propenyl)oxy]-2-naphthaleneacetic acid]	14	–
100	C[C@H](C=O)c1ccc2cc(OCc3ccc4ccccc4n3)ccc2c1 [Example 27, (S)-α-methyl-6-(2-quinolinylmethoxy)-2-naphthaleneacetaldehyde]	-62	–
95	O=C(O)Cc1ccc2cc(OCc3ccc4ccccc4n3)ccc2c1 [Example 21, 6-(2-Ouinolinylmethoxy)-2-naphthaleneacetic Acid]	–	IC50 [1]: > 250 µM
87	CC(C)(C(=O)O)c1ccc2cc(OCc3ccc4ccccc4n3)ccc2c1 [Example 22, α,α-Dimethyl-6-(2-quinolinylmethoxy)-2-naphthaleneacetic acid]	-28	–
